Experimental data taken from patent US8658638B2, “Mineralocorticoid receptor antagonist and methods of use” (priority 2009, dated 2014).

Experiments:
[1] = target: T1, human AR (androgen receptor) (Homo sapiens, UniProt P10275); test: Steroid nuclear hormone receptor binding assay, AR; conditions: [3H]-methyltrienolone, HEK293 lysate overexpressing human AR
T1 construct: expressed in transfected cells; host or cells: HEK293 (293-AR lysate)
T1 sequence (P10275 1-920): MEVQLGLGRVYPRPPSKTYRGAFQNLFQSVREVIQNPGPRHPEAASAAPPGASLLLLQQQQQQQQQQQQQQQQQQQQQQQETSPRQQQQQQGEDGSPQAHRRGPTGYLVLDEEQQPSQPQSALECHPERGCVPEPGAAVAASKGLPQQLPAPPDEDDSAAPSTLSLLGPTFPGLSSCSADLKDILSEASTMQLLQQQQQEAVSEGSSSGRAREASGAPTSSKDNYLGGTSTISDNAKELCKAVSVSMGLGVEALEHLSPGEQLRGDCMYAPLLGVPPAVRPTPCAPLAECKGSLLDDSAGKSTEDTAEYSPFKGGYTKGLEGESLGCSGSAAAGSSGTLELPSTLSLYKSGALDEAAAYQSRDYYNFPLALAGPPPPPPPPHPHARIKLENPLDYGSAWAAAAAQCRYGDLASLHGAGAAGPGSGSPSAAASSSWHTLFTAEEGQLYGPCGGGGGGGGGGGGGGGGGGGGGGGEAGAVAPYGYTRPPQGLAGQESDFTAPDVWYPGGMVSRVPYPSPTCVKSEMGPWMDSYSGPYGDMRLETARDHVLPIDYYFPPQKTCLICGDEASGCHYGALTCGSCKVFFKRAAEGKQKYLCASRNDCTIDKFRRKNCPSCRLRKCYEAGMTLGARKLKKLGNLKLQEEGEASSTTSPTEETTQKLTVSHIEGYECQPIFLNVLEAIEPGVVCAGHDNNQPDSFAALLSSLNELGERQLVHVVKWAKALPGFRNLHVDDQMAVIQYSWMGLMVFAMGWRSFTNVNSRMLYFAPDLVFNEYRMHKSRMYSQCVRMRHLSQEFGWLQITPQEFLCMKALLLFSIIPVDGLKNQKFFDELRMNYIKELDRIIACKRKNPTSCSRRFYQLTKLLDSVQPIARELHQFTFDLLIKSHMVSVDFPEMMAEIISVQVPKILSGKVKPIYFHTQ
Experimental: Cell lysates from human embryonic kidney HEK293 cells overexpressing human MR (mineralocorticoid receptor), GR (glucocorticoid receptor), AR (androgen receptor), or PR (progesterone receptor) are used for receptor-ligand competition binding assays to determine Ki values.
Briefly, steroid receptor competition binding assays are run in a buffer containing 20 mM HEPES buffer (pH=7.6), 0.2 mM EDTA, 75 mM NaCl, 1.5 mM MgCl2, 20% glycerol, 20 mM sodium molybdate, 0.2 mM DTT (dithiothreitol), 20 μg/mL aprotinin and 20 μg/mL leupeptin (assay buffer). Typically, steroid receptor binding assays include radio-labeled ligands, such as 0.25 nM [^3H]-aldosterone for MR binding, 0.7 nM [^3H]-dexamethasone for GR binding, 0.36 nM [^3H]-methyltrienolone for AR binding, and 0.29 nM [^3H]-methyltrienolone for PR binding, and either 20 μg 293-MR lysate, 20 μg 293-GR lysate, 22 μg 293-AR lysate, or 40 μg 293-PR lysate per well. Assays are typically run in 96-well format. Competing test compounds are added at various concentrations ranging from about 0.01 nM to 10 μM. Non-specific binding is determined in the presence of 500 nM aldosterone for MR binding, 500 nM dexamethasone for GR binding, or 500 nM methyltrienolone for AR and PR binding. […] After an incubation of 2 hours, plates are read in a Wallac Microbeta counter. […]

human MR = target: T2, human MR (Homo sapiens, UniProt P08235); test: hMR competitive antagonist assay (Schild analysis); type: cell-based; conditions: Schild analysis versus aldosterone, HEK293 transfected with human MR
T2 construct: expressed in transfected cells; host or cells: HEK293
T2 sequence (P08235 1-984): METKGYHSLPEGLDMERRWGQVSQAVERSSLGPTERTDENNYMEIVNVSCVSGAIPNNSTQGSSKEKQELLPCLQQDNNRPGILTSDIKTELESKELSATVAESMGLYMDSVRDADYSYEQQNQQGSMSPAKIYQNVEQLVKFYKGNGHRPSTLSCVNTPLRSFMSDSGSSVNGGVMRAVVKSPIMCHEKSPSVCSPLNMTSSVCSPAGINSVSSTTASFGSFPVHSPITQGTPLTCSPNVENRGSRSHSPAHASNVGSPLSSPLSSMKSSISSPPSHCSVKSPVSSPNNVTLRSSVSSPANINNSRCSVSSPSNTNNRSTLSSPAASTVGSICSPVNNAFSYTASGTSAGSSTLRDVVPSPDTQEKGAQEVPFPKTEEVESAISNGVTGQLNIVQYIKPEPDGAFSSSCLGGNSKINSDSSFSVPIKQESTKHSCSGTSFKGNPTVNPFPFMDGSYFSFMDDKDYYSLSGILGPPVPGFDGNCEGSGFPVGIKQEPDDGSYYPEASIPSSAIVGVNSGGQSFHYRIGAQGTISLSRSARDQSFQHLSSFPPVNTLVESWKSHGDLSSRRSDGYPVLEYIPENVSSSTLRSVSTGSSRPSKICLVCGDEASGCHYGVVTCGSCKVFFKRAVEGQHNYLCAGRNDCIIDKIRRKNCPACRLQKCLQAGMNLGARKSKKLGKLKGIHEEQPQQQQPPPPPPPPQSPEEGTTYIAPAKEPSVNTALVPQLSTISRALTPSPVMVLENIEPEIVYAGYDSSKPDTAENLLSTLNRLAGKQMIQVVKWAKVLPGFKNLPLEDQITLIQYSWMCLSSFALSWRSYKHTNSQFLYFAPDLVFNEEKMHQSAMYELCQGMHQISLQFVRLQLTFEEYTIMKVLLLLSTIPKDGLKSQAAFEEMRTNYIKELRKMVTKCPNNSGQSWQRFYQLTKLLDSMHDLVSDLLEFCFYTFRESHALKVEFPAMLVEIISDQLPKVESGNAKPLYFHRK
Excerpt: Human embryonic kidney HEK293 cells are transfected with human MR using the same transfection reagents, plasmids, promoters, reporter constructs, buffers, and procedures as described above for the Nuclear Hormone Receptor Panel Screen.

`O=c1[nH]c2cc(/C=C3\c4ccccc4COc4cc(F)ccc43)ccc2n1[C@@H]1C[C@@H]2COCCN2C1` [Compound (I), 5-((E)-(3-fluorodibenzo[b,e]oxepin-11(6H)-ylidene)methyl)-1-((7R,8aR)-hexahydro-1H-pyrrolo[2,1-c][1,4]oxazin-7-yl)-1H-benzo[d]imidazol-2(3H)-one] was tested. Which Ki [1] did it give?
Its Ki is ~1170 nM.

And the Kb (human MR)?
Its Kb is ~5.1 nM.
